Conditions in all cases: incubation time: 72 h
Test [1] deals with BT-474. In words: normalised viability (% of control), CellTiter-Blue; higher = more viable cells (about 100 = DMSO control). An outline of the steps: (§1)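 The reported quantity is normalised viability at a single listed concentration of the series. Compound in 5 µl medium was pre-dispensed into 384-well plates and 20 µl of breast cancer cell suspension was added for 72 h. A 2 h, 37 °C CellTiter-Blue step (2.5 µl) preceded fluorescence reading at 560/590 nm, and plates were normalised to vehicle (100) and a positive kill control (0).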
(The colour change of resazurin is a common sign of viable cells or microbes.)

Test [2] has as its system BT-549. The description is as above. In outline:
as §1

In test [3] the test system is CAL-120. Described as above. An outline of the steps:
as §1

For test [4], the system named is CAL-148. The test is described as above. In outline: as §1
Test [5] deals with CAL-85-1. The test is described as above. In outline: as §1
The next test deals with DU-4475. The description is as above. An outline of the steps:
as §1

Test [6] has as its system HCC1143. The test is described as above. An outline of the steps:
as §1

In test [7] the test system is HCC1599. The description is as above. In outline: as §1
Test [8] concerns HCC1937. The test is described as above. An outline of the steps: as §1
Test [9] concerns HDQ-P1. The description is as above. An outline of the steps:
as §1

For test [10], the system named is Hs578T. Described as above. An outline of the steps: as §1
For the next test, the system named is MDA-MB-436. Described as above. An outline of the steps: as §1
Test [11] deals with MDA-MB-453. The test is described as above. An outline of the steps: as §1
The subject of a further test is MDA-MB-468. Described as above. In outline: as §1
Another test deals with MFM-223. Described as above. An outline of the steps: as §1
The subject of the next test is SK-BR-3. The test is described as above. An outline of the steps: as §1
The subject of test [12] is BT-474. In words: normalised response (% of control), CellTiter-Glo; higher = more viable cells (100 = DMSO, 0 = benzethonium chloride kill control). An outline of the steps:
(§2)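 Breast cancer cell lines, seeded at 20 µl suspension per well, were incubated for 72 h in 384-well plates containing compound at 5 concentrations. These concentrations rose in 10-fold steps over a 10,000-fold range set for each compound. CellTox Green fluorescence (485/520 nm) was read, then CellTiter-Glo luminescence after 10 min at room temperature, and each plate was normalised to 0.1 % DMSO (100) and a positive kill control (0). Values are normalised signals, each at one concentration.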
In general terms: In ATP-based viability assays light output follows the ATP content of the culture.

In test [13] the test system is BT-549. Described as above. An outline of the steps: as §2
Test [14] relates to CAL-120. Described as above. In outline:
as §2

Test [15] concerns CAL-148. The test is described as above. An outline of the steps:
as §2

Another test relates to CAL-51. Described as above. In outline:
as §2

The test system of test [16] is CAL-85-1. Described as above. In outline:
as §2

In test [17] the test system is HCC1143. Described as above. In outline: as §2
The subject of test [18] is HCC1599. Described as above. In outline:
as §2

In test [19] the test system is HCC1937. The description is as above. In outline: as §2
For test [20], the system named is HDQ-P1. Described as above. An outline of the steps:
as §2

The subject of test [21] is Hs578T. The test is described as above. In outline: as §2
For another test, the system named is MCF-10A. Described as above. An outline of the steps:
as §2

In another test the test system is MDA-MB-231. The description is as above. An outline of the steps:
as §2

Test [22] deals with MDA-MB-453. The test is described as above. An outline of the steps:
as §2

Values joined by “and” are separate entries in the source; they are usually repeats but may differ in a detail not shown here. Equal values may be shown once.

As for `Cc1c(N)nc([C@H](CC(N)=O)NC[C@H](N)C(N)=O)nc1C(=O)N[C@H](C(=O)N[C@H](C)[C@@H](O)[C@H](C)C(=O)N[C@H](C(=O)NCCc1nc(-c2nc(C(=O)NCCC[S+](C)C)cs2)cs1)[C@@H](C)O)[C@@H](OC1OC(CO)C(O)C(O)C1OC1OC(CO)C(O)C(OC(N)=O)C1O)c1cnc[nH]1` (stereo partly specified) [Bleomycin], the normalised viability was 96% in the test on BT-474 [1] (100 nM); 61.4% with BT-549 [2] (100 nM); 86.3% in the test on CAL-120 [3] (100 nM); 77.6% in the test on CAL-148 [4] (10 nM); 107% in the test on CAL-85-1 [5] (10 nM); 120% with DU-4475 (10 nM). Further, the normalised viability worked out at 74.7% with HCC1143 [6] (100 nM); 134% with HCC1599 [7] (100 nM); 91.4% with HCC1937 [8] (100 nM); 82.3% in the test with HDQ-P1 [9] (10 nM); 68.7% with Hs578T [10] (100 nM); 88.2% with MDA-MB-436 (100 nM). Besides, the normalised viability in the test on MDA-MB-453 [11] (10 nM) was found to be 102%; with MDA-MB-468 (100 nM) it was 86.5%; in the test with MFM-223 (100 nM), 99.5%; in the test with SK-BR-3 (100 nM), 90.8%.
`Cc1cc2c(F)c(Oc3ncnn4cc(OC[C@@H](C)O)c(C)c34)ccc2[nH]1` [Brivanib]: the normalised viability in the test with BT-474 [1] (10 nM) was found to be 102%; with BT-549 [2] (10 nM) it was 93.9%; in the test with CAL-120 [3] (10 nM), 88.2%; in the test on CAL-148 [4] (1 nM), 82.3%; in the test on CAL-85-1 [5] (1 nM) it was 105%; in the test with DU-4475 (1 nM), 96.3%. Further, the normalised viability was found to be 78.8% in the test on HCC1143 [6] (10 nM); 96.2% in the test with HCC1599 [7] (10 nM); 97.2% in the test on HCC1937 [8] (10 nM); 94.8% in the test on HDQ-P1 [9] (1 nM); 88.9% in the test with Hs578T [10] (10 nM); 104% in the test with MDA-MB-436 (10 nM). Also, the normalised viability in the test on MDA-MB-453 [11] (1 nM) was found to be 102%; in the test with MDA-MB-468 (10 nM) it was 103%; in the test on MFM-223 (10 nM), 90.1%; with SK-BR-3 (10 nM), 75.5%.
Regarding `CCCCCOC(=O)Nc1nc(=O)n([C@@H]2O[C@H](C)[C@@H](O)[C@H]2O)cc1F` [Capecitabine], the normalised viability with BT-474 [1] (100 nM) was 114% and 99.9%; in the test with BT-549 [2] (100 nM), 103% and 97.5%; with CAL-120 [3] (100 nM), 85.3% and 95.2%; in the test with CAL-148 [4] (10 nM), 86.9% and 94.2%; with CAL-85-1 [5] (10 nM), 96.7% and 98.3%; in the test on DU-4475 (10 nM) it was 97.4% and 107%. Besides, the normalised viability is 123% and 106% in the test with HCC1599 [7] (100 nM); 86.1% and 80.9% with HCC1937 [8] (100 nM); 106% and 91.4% in the test on HDQ-P1 [9] (10 nM); 83.7% and 96.8% in the test with Hs578T [10] (100 nM); 95.8% and 95.6% in the test with MDA-MB-436 (100 nM); 94.8% and 93.2% in the test on MDA-MB-453 [11] (10 nM). In addition, the normalised viability in the test with MDA-MB-468 (100 nM) is 101% and 111%; in the test with MFM-223 (100 nM), 87.7% and 104%; with SK-BR-3 (100 nM), 77.5% and 96.3%.
For the molecule `CC(C)C[C@H](NC(=O)[C@H](CCc1ccccc1)NC(=O)CN1CCOCC1)C(=O)N[C@@H](Cc1ccccc1)C(=O)N[C@@H](CC(C)C)C(=O)[C@@]1(C)CO1` [Carfilzomib], the normalised viability in the test on BT-474 [1] (10 nM) stood at 87.2%; in the test on BT-549 [2] (10 nM), 12.5%; in the test on CAL-120 [3] (10 nM) it was 46.2%; with CAL-148 [4] (1 nM), 98.5%; in the test with CAL-85-1 [5] (1 nM), 104%; in the test with DU-4475 (1 nM), 93.5%. The normalised viability in the test on HCC1143 [6] (10 nM) is 53.4%; in the test on HCC1599 [7] (10 nM), 109%; with HCC1937 [8] (10 nM), 22.8%; in the test with HDQ-P1 [9] (1 nM), 109%; in the test on Hs578T [10] (10 nM) it was 13.8%; in the test on MDA-MB-436 (10 nM), 73.5%. The normalised viability came out at 96.8% in the test on MDA-MB-453 [11] (1 nM), 19.5% in the test with MDA-MB-468 (10 nM), 14.8% in the test with MFM-223 (10 nM) and 33.2% with SK-BR-3 (10 nM).
Take `Nc1nc(Cl)nc2c1ncn2[C@@H]1O[C@H](CO)[C@@H](O)[C@@H]1F` [Clofarabine]: the normalised viability came out at 99.2% in the test with BT-474 [1] (100 nM); 85.6% with BT-549 [2] (100 nM); 78.8% in the test with CAL-120 [3] (100 nM); 86.8% with CAL-148 [4] (10 nM); 96.8% in the test on CAL-85-1 [5] (10 nM); 105% with DU-4475 (10 nM). In addition, the normalised viability in the test with HCC1143 [6] (100 nM) came to 79.7%; in the test with HCC1599 [7] (100 nM), 93.7%; in the test on HCC1937 [8] (100 nM) it was 80%; with HDQ-P1 [9] (10 nM) it was 110%; with Hs578T [10] (100 nM) it was 84.6%; in the test on MDA-MB-436 (100 nM), 77%. For the same molecule, the normalised viability was determined as 103% in the test on MDA-MB-453 [11] (10 nM), 91.3% in the test on MDA-MB-468 (100 nM), 89.1% with MFM-223 (100 nM) and 65% in the test on SK-BR-3 (100 nM).
`NC1(c2ccc(-c3nc4ccn5c(=O)[nH]nc5c4cc3-c3ccccc3)cc2)CCC1` [MK-2206] (100 nM): the normalised response in the test with BT-474 [12] is 97.4%; with BT-549 [13], 90.3%; with CAL-120 [14] it was 99.8%; in the test with CAL-148 [15], 97%; with CAL-51, 95.1%; in the test on CAL-85-1 [16], 109%. For the same molecule, the normalised response in the test with HCC1143 [17] is 98.2%; in the test with HCC1599 [18], 104%; with HCC1937 [19] it was 96.6%; in the test on HDQ-P1 [20], 99.2%; in the test on Hs578T [21], 97.2%; in the test on MCF-10A it was 107%. In addition, the values for the normalised response in the test on MDA-MB-231 and in the test with MDA-MB-453 [22] were 103% and 76.5%, respectively.
Consider `NC(=O)c1cccc2cn(-c3ccc([C@@H]4CCCNC4)cc3)nc12` [MK-4827] (1000 nM), for which the normalised response is 109% with BT-474 [12]; 97.4% in the test with BT-549 [13]; 101% in the test on CAL-120 [14]; 97.6% in the test on CAL-148 [15]; 95.2% with CAL-51; 105% with CAL-85-1 [16]. Also, the normalised response with HCC1143 [17] turned out to be 104%; with HCC1599 [18], 107%; in the test with HCC1937 [19], 105%; with HDQ-P1 [20], 102%; in the test on Hs578T [21], 102%; with MCF-10A, 106%. Further, the values for the normalised response in the test on MDA-MB-231 and in the test on MDA-MB-453 [22] were 109% and 140%, respectively.
Take `O=C(c1cc(Cc2n[nH]c(=O)c3ccccc23)ccc1F)N1CCN(C(=O)C2CC2)CC1` [Olaparib] (1000 nM): the normalised response was 87.6% in the test with BT-474 [12]; 94.9% in the test on BT-549 [13]; 92.3% with CAL-120 [14]; 83.1% in the test with CAL-148 [15]; 98.5% with CAL-51; 101% in the test with CAL-85-1 [16]. The normalised response with HCC1143 [17] was found to be 94.8%; in the test on HCC1599 [18] it was 101%; with HCC1937 [19] it was 95.6%; with HDQ-P1 [20] it was 96.6%; with Hs578T [21] it was 97.5%; in the test on MCF-10A, 92.3%. Also, the values for the normalised response in the test with MDA-MB-231 and in the test on MDA-MB-453 [22] were 88.7% and 132%, respectively.

Values taken from the supplement of paper PMC4862054.
